# Assay results as given in US11684611B2, “Compounds for treating diseases associated with a mitochondrial dysfunction” (Amabiotics, priority 2016, dated 2023).
# Test system: rat primary dopaminergic neurons (TH positive neurons)
# Assay: Neuroprotective effect on rat primary cultures of dopaminergic neurons injured by 6-OHDA (count of TH positive neurons)
# Assay type: cell-based
# Settings: for survival of primary dopaminergic neuron culture (TH positive neurons), % of control: p<0.05 vs 6-OHDA
# Experimental: Accordingly, this study investigates the effect of queuine on rat primary mesencephalic cultures injured by exposure to 6-OHDA.
# Rat dopaminergic neurons are cultured as described by Schinelli et al. (1988) J. Neurochem. 50:1900-1907.
# Briefly, pregnant female rats (Wistar rats; Janvier) at 15 days of gestation are killed by cervical dislocation and the fetuses are removed from the uterus. The embryonic midbrains is removed and placed in ice-cold Leibovitz medium (L15; PanBiotech) containing 2% of Penicillin-Streptomycin (PS; PanBiotech) and 1% of bovine serum albumin (BSA; PanBiotech). Only the ventral portions of the mesencephalic flexure is used for cell preparations as this is the region of the developing brain rich in dopaminergic neurons. The midbrain is dissociated by trypsinisation for 20 min at 37° C. (Trypsin EDTA 1X; PanBiotech). The reaction is stopped by the addition of Dulbecco's modified Eagle's medium (DMEM; PanBiotech) containing DNAse I grade II (0.1 mg/mL; Roche Diagnostic) and 10% of fetal calf serum (FCS; Invitrogen). The cells are mechanically dissociated by 3 passages through a 10 ml pipette. The dissociated cells are then centrifuged at 180×g for 10 min at 4° C. on a layer of BSA (3.5%) in L15 medium. The supernatant is discarded and the pelleted cells are re-suspended in a culture medium consisting of Neurobasal (Invitrogen, Ref: 21103, Batch: 1725098) supplemented with B27 (2%; Invitrogen, ref: 17504), L-glutamine (2 mM; PanBiotech, Ref: P04-80100) and 2% of PS, 10 ng/mL of BDNF (PanBiotech, Ref: CB-1115002) and 1 ng/mL of GDNF (PanBiotech, Ref: CB-1116001). Viable cells are counted in a Neubauer cytometer using the trypan blue exclusion test. The cells are then seeded at a density of 40 000 cells/well in 96 well-plates pre-coated with poly-D-lysine (Greiner) and are cultured at 37° C. in a humidified air (95%)/CO2 (5%) atmosphere. Half of the medium is changed every 2 days with fresh medium. In these conditions, after 5 days of culture, astrocytes are present in the culture and release growth factor allowing neurons differentiation. Five to six percent of the neuronal cell population are dopaminergic neurons.
# Each condition is replicated in six wells of the 96-wells culture plates. 1.4. End Point Evaluation: Determination of the Total Number of Dopaminergic Neurons
# At the end of the incubation time, the cells are fixed by a solution of 4% paraformaldehyde for 20 min at room temperature. The cells are then permeabilized and non-specific sites are blocked with a solution of phosphate buffered saline (PBS; PanBiotech) containing 0.1% of saponin (Sigma) and 1% fetal calf serum (FCS) for 15 min at room temperature. Eventually, the cells are incubated with a monoclonal anti-Tyrosine Hydroxylase (TH) mouse antibody (Sigma) in PBS containing 1% FCS and 0.1% saponin, for 2 h at room temperature. The anti-TH antibody targets dopaminergic neurons.
# The nuclei of the cells is stained by a fluorescent marker (Hoechst solution, SIGMA) in the same solution.
# For each condition, 20 pictures per well are taken using InCell Analyzer™ 2000 (GE Healthcare) with 20× magnification. Images of each culture well are also taken.
# The analysis of the cell bodies of TH positive neurons are performed using Developer software (GE healthcare). A total of 6 data per experimental condition is provided. All values are expressed as mean±s.e. mean. For statistical analyses ANOVA is performed followed by Dunnett's test.
molecule,measurement,setting,value
"NCCc1cc(O)c(O)cc1O [6-OHDA, 6-hydroxydopamine, reference compound]",effect on number of TH positive neurons,"6-OHDA alone at 20 μM for 48 h, FIG. 1 and FIG. 2",large and significant decrease
"Nc1nc2[nH]cc(CN[C@H]3C=C[C@H](O)[C@@H]3O)c2c(=O)[nH]1 [queuine, 7-(3,4-trans-4,5-cis-dihydroxy-1-cyclopenten-3-ylaminomethyl)-7-deazaguanine]",effect on 6-OHDA-induced neurotoxicity,"preliminary results, rat primary mesencephalic cultures",neuroprotective effect
same,"survival of primary dopaminergic neuron culture (TH positive neurons), % of control","queuine 0.3 μM added 6 days before 6-OHDA intoxication (20 μM, 48 h), FIG. 2",80.47 % of the control
same,"survival of primary dopaminergic neuron culture (TH positive neurons), % of control","queuine 1 μM added 1 day (24 hours) before 6-OHDA intoxication (20 μM, 48 h), FIG. 1",81.33 % of the control
"BDNF: brain-derived neurotrophic factor, obtained from PanBiotech, used as positive control (protein, UniProt P23560 19-247, looked up) Neurotrophic factor BDNF …: APMKEANIRGQGGLAYPGVRTHGTLESVNGPKAGSRGLTSLADTFEHVIEELLDEDQKVRPNEENNKDADLYTSRVMLSSQVPLEPPLLFLLEEYKNYLDAANMSMRVRRHSDPARRGELSVCDSISEWVTAADKKTAVDMSGGTVTVLEKVPVSKGQLKQYFYETKCNPMGYTKEGCRGIDKRHWNSQCRTTQSYVRALTMDSKKRIGWRFIRIDTSCVCTLTIKRGR","survival of primary dopaminergic neuron culture (TH positive neurons), % of control","BDNF 50 ng/mL applied 1 day before 6-OHDA intoxication (20 μM, 48 h), FIG. 1",80.80 % of the control
same,"survival of primary dopaminergic neuron culture (TH positive neurons), % of control","BDNF 50 ng/mL applied 6 days before 6-OHDA intoxication (20 μM, 48 h), FIG. 2",83.44 % of the control
